From patent publication US9029582B2, “Pharmaceutical composition” (Capital, Business Y Gestion de Finanzas S.L., priority 2011, dated 2015)

Assays:
[1] = Dissolution / reconstitution time at 50 mg/mL in castor oil, ethanol and benzyl alcohol solvent (benzyl benzoate-free); format: physicochemical; conditions: solvent of castor oil and benzyl benzoate-free alcohol mixtures
Description: The lyophilizate should be reconstituted within a reasonable period, typically of less than 2 minutes (5); if reconstitution time is excessive, that is, more than 3 minutes, the user may get impatient or frustrated (6). […] This comparison was performed by dissolving fulvestrant at a concentration of 50 mg/mL, using a solvent comprising castor oil and benzyl benzoate-free alcohol mixtures.
A 50 mL Schott, type I, glass vial is placed on an Ohaus Adventurer balance. Then, 3.12 g Merck ethanol, 4.17 g Sigma-Aldrich benzyl alcohol and 12.70 g Sigma-Aldrich castor oil are added.
With the aid of a 1000 uL Eppendorf Research micropipette, 5 mL of the previously prepared solvent was added into an 11 mL Nuova Ompi type I of glass vial. The vial is capped with a solution S-additive plug from WestPharma and crimped with an aluminum seal.
The process for reconstituting a vial of lyophilizate of example 1 with the solvent of said example, using a Needle-less Transfer System Transfer Device 20/20 w/150 mic Filter Sterile from Westpharma, FIG. 9, is as follows:
10. The complete content of the syringe is discharged into the lyophilizate vial. […]
Using a Sper Scientific timer, it was determined that less than 90 seconds were required for reconstituting the lyophilizate. […]
It was determined that more than 60 minutes were required to completely dissolve Fulvestrant in the solvent using a Sper Scientific timer.

[2] = cited from earlier work
[3] = Stability test of the fulvestrant solution in acetic acid during 6 hours at room temperature (HPLC titer and impurities); format: physicochemical; conditions: fulvestrant in glacial acetic acid
Description: To a 10 mL beaker, fitted with a magnetic stirrer, 2.5 mL glacial acetic acid, Merck lot K 36685863, is added.
Fifty mg Fulvestrant from Scinopharm, lot#70850AA003 were weighed using an Ohaus model Adventurer balance.
Stirring of acetic acid is started and Fulvestrant is slowly added which is rapidly dissolved. After all Fulvestrant was added stirring is continued for 5 minutes.
Stirring is stopped and the solution is left at room temperature for 6 hours, then dissolution is analyzed in terms of titer and purity by HPLC, and compared to Scinopharm Fulvestrant as used for manufacturing the lyophilizate. HPLC determinations were carried out on an HPLC Waters with a Waters 1525 binary pump, Waters 717 autosampler, and a Waters 2996 diode array detector; the HPLC column used for determining titer and purity is an Agilent Eclipse XDB-C8 3.5 u 4.6×150 Rapid Res column; the chromatographic method corresponds to US Pharmacopeia (USP, 34 (2011)) monograph for Fulvestrant.

- dissolution time [1]: more than 60 minutes
- titer of the solution [3]: 99.2%
- total impurities in the solution [3]: 0.1%
SMILES: C[C@]12CC[C@@H]3c4ccc(O)cc4C[C@@H](CCCCCCCCC[S+]([O-])CCCC(F)(F)C(F)(F)F)[C@H]3[C@@H]1CC[C@@H]2O (some centres unmarked) [Fulvestrant]
- solubility in castor oil with organic solvents (alcohol) and a non-aqueous ester-type solvent ([2]; carrier of US 6,774,122): at least 50 mg/mL
- solubility in ethanol ([2]; ethanol, ref (3) US 6,774,122): highly soluble
- fulvestrant solubility in propylene glycol ([2]; propylene glycol, according to ref (7) US 2009/0227549): 4 mg/mL
- solubility in tert-butanol ([2]; tert-butanol, ref (7)): highly soluble
- solubility in water ([2]; water, ref (3)): practically insoluble
